Values joined by “and” are separate entries in the source; they are usually repeats but may differ in a detail not shown here. Equal values may be shown once. “Also recorded” adds a separate entry of the source. Bridge positions count the residues as written; N and C are the ends. Ends that are not written are not given here. Peptide text beside a SMILES is read from it.
How the values were obtained:
[1] = toxicity in vivo, LD50 after intracerebroventricular injection; conditions: mouse, icv or intrathecal, 20 g C57/BL6 mice
Procedure: Groups of six to eight mice per dose were injected with 5 μl peptide solution containing 0.1% (w/v) bovine serum albumin and 0.9% (w/v) NaCl. The LD50 values are set out in Table 5.

[2] = target: mKv1.3 (Mus musculus, UniProt P16390); experiment: patch-clamp whole-cell recording, K+ current block; type: cell-based
Procedure: Electrophysiological experiments were carried out at 22-24° C. using the patch-clamp whole-cell recording mode. Cells were bathed with mammalian Ringer's solution (in mM): 160 NaCl, 4.5 KCl, 2 CaCl2, 1 MgCl2, and 10 HEPES (pH 7.4 with NaOH), with an osmolarity of 290-320 mOsm. […] A syringe-driven perfusion device was used to exchange the external recording bath solution. Two internal pipette solutions were used, one for measuring voltage-gated K^+ currents that contained (in mM): 155 KF, 2 MgCl2, 10 HEPES, and 10 EGTA (pH 7.2 with KOH), with an osmolarity of 290-320 mOsm and another for measuring Ca^2+-activated K^+ currents that contained (in mM): 135 K-aspartate, 8.7 CaCl2, 2 MgCl2, 10 EGTA, 10 HEPES (pH 7.2 with KOH), with an osmolarity of 290-320 mOsm. A free [Ca^2+]i of 1 μM was calculated. All currents through voltage-gated K^+ channels were elicited by 200 ms depolarising voltage steps from −80 to +40 mV. Potassium currents through KCa1.1, KCa2.1 and KCa3.1 were elicited by 1 μM internal [Ca^2+]i and 400 ms voltage ramps from −120 to 0 mV (for KCa3.1 channel and KCa1.1 channel) and from −120 to +40 mV (for KCa2.1 channel). Electrodes were pulled from glass capillaries (Science Products, Germany), and fire-polished to resistances of 2.5-5 MΩ. Membrane currents were measured with an EPC-9 or EPC-10 patch-clamp amplifier (HEKA Elektronik, Lambrecht, Germany) interfaced to a Macintosh computer running acquisition and analysis software (Pulse and PulseFit). When voltage-gated K^+ currents were measured, the capacitive and leak currents were subtracted using a P/10 procedure. Series resistance compensation (>80%) was used for currents above 2 nA. The holding potential was −80 mV in all experiments.

[3] = system: Lewis rats immunized with spinal cord homogenate; experiment: treatment of chronic relapsing EAE, osmotic pump IP; type: in vivo; conditions: MTx 50 nM
Procedure: Each rat received 200 μl of emulsion sc, divided in the rear footpads, on day 0. Eight days later, as their body weight decreased, a precursor sign for clinical EAE, an osmotic pump was implanted IP. The pump delivered drugs at 1 μl/h for 8 days. They were filled with the peptide blockers, dissolved in Na Cl 0.15 M containing 2% Lewis serum, as vehicle.
Clinical evaluation. The severity of the disease was scored on a scale of 0 to 6, with 0.5 points for intermediate clinical findings (0: no clinical signs; 1.0: limp tail; 2.0: mild paraparesis and ataxia; 3.0: moderate paraparesis; 4.0: complete hind limb paralysis; 5.0: paralysis+incontinence; 5.5: tetraplegia; 6.0: moribund or death). Rats were weighed every day. Rats showing no clinical signs of EAE and no weight loss were excluded from the studies. The beneficial effects of K^+ blockers on EAE were evaluated by a reduction in clinical severity and in duration of the disease and in number of relapses compared with those of rats treated with the vehicle only, 0.15 M NaCl.
Data analysis. Statistical analysis was conducted using the Mann-Whitney U test. Mean differences between groups were considered significant at values of P<0.05.

[4] = target: hKv1.2 (human (only by the printed prefix h), UniProt P16389); experiment: cell-based or functional assay
[5] = target: T1, hKv3.2 (human (only by the printed prefix h), UniProt Q96PR1); experiment: cell-based or functional assay
T1 sequence: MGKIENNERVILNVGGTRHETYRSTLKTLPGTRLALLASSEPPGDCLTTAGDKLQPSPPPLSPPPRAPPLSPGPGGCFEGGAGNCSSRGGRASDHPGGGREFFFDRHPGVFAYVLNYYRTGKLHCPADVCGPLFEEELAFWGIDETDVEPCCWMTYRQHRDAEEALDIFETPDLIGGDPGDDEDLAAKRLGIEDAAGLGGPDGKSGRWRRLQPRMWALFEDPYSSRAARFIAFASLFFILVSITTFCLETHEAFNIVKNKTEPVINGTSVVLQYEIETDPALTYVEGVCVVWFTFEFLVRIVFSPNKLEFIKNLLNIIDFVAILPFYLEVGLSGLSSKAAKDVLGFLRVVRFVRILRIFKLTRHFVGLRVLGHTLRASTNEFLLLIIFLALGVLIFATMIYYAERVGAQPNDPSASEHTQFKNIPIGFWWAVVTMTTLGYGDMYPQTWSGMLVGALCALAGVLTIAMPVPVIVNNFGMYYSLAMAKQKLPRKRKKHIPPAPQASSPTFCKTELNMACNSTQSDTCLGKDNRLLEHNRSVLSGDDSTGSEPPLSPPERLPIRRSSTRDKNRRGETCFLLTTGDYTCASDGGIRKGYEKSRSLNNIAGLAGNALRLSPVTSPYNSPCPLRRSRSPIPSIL

mKv1.3, sequence (P16390 whole entry, the tested form may be a part): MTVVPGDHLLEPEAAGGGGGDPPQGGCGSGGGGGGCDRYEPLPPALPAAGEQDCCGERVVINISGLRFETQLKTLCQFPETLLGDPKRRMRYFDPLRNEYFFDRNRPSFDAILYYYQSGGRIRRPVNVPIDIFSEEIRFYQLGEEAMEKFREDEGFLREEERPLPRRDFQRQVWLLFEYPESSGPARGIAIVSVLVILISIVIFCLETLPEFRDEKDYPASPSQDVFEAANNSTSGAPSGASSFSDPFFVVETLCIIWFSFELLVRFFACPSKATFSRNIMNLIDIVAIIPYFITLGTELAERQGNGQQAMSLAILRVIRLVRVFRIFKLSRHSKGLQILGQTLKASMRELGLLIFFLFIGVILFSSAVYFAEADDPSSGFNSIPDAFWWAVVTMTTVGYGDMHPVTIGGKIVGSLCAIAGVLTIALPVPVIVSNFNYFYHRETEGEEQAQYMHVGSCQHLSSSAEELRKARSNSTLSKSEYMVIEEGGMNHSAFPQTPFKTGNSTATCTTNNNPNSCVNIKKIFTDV

| Molecule | LD50 [1] [µg/kg] | ID50 [5] [nM] | also measured |
| --- | --- | --- | --- |
| CC[C@H](C)[C@@H]1NC(=O)[C@H](CCCCN)NC(=O)[C@@H](NC(=O)[C@H](CCCCN)NC(=O)[C@@H](NC(=O)[C@H](CC(N)=O)NC(=O)[C@@H](NC(=O)[C@@H](NC(=O)[C@@H](NC(=O)CN)C(C)C)[C@@H](C)CC)[C@@H](C)CC)C(C)C)CSSC[C@@H]2NC(=O)[C@H](CCCCN)NC(=O)CNC(=O)[C@H](Cc3ccccc3)NC(=O)[C@H](CCCNC(=N)N)NC(=O)[C@H](CCSC)NC(=O)CNC(=O)[C@H](C)NC(=O)[C@H](CCCCN)NC(=O)[C@H](CCCCN)NC(=O)[C@@H]3CSSC[C@@H](C(=O)N[C@H](C(=O)N4CCC[C@H]4C(=O)N[C@@H](CCCCN)C(N)=O)[C@@H](C)O)NC(=O)[C@H](Cc4c[nH]cn4)NC(=O)[C@H](CSSC[C@H](NC(=O)[C@H](CCC(N)=O)NC(=O)[C@H](CCCNC(=N)N)NC(=O)[C@H](CO)NC1=O)C(=O)N[C@@H](CC(C)C)C(=O)N[C@@H](CCC(=O)O)C(=O)N1CCC[C@H]1C(=O)N3)NC(=O)[C@H](CCCCN)NC(=O)CNC(=O)[C@H](CC(N)=O)NC(=O)[C@H](CCSC)NC2=O [OsK1-NH2] | 3.5 |  |  |
| CC[C@H](C)[C@@H]1NC(=O)[C@H](CCCCN)NC(=O)[C@@H](NC(=O)[C@H](CCCCN)NC(=O)[C@@H](NC(=O)[C@H](CC(N)=O)NC(=O)[C@@H](NC(=O)[C@@H](NC(=O)[C@@H](NC(=O)CN)C(C)C)[C@@H](C)CC)[C@@H](C)CC)C(C)C)CSSC[C@@H]2NC(=O)[C@H](CCCCN)NC(=O)CNC(=O)[C@H](Cc3ccccc3)NC(=O)[C@H](CCCNC(=N)N)NC(=O)[C@H](CCSC)NC(=O)CNC(=O)[C@H](C)NC(=O)[C@H](CCCCN)NC(=O)[C@H](CCCCN)NC(=O)[C@@H]3CSSC[C@@H](C(=O)N[C@H](C(=O)N4CCC[C@H]4C(=O)N[C@@H](CCCCN)C(=O)O)[C@@H](C)O)NC(=O)[C@H](C)NC(=O)[C@H](CSSC[C@H](NC(=O)[C@H](CCC(N)=O)NC(=O)[C@H](CCCNC(=N)N)NC(=O)[C@H](CO)NC1=O)C(=O)N[C@@H](CC(C)C)C(=O)N[C@@H](CCC(=O)O)C(=O)N1CCC[C@H]1C(=O)N3)NC(=O)[C@H](CCCCN)NC(=O)CNC(=O)[C@H](CC(N)=O)NC(=O)[C@H](CCSC)NC2=O [[A^34]-OsK1] (H-GVIINVKCKISRQCLEPCKKAGMRFGKCMNGKCACTPK-OH; disulfide 8-28, 14-33, 18-35) | 10 |  |  |
| CC[C@H](C)[C@@H]1NC(=O)[C@H](CCCCN)NC(=O)[C@@H](NC(=O)[C@H](CCCCN)NC(=O)[C@@H](NC(=O)[C@H](CC(N)=O)NC(=O)[C@@H](NC(=O)[C@@H](NC(=O)[C@@H](NC(=O)CN)C(C)C)[C@@H](C)CC)[C@@H](C)CC)C(C)C)CSSC[C@@H]2NC(=O)[C@H](CCCCN)NC(=O)CNC(=O)[C@H](Cc3ccccc3)NC(=O)[C@H](CCCNC(=N)N)NC(=O)[C@H](CCSC)NC(=O)CNC(=O)[C@H](C)NC(=O)[C@H](CC(=O)O)NC(=O)[C@H](CCCCN)NC(=O)[C@@H]3CSSC[C@@H](C(=O)N[C@H](C(=O)N4CCC[C@H]4C(=O)N[C@@H](CCCCN)C(=O)O)[C@@H](C)O)NC(=O)[C@H](Cc4c[nH]cn4)NC(=O)[C@H](CSSC[C@H](NC(=O)[C@H](CCC(N)=O)NC(=O)[C@H](CCCNC(=N)N)NC(=O)[C@H](CO)NC1=O)C(=O)N[C@@H](CC(C)C)C(=O)N[C@@H](CCC(=O)O)C(=O)N1CCC[C@H]1C(=O)N3)NC(=O)[C@H](CCCCN)NC(=O)CNC(=O)[C@H](CC(N)=O)NC(=O)[C@H](CCSC)NC2=O [[D^20]-OsK1] (H-GVIINVKCKISRQCLEPCKDAGMRFGKCMNGKCHCTPK-OH; disulfide 8-28, 14-33, 18-35) | 4.5 |  |  |
| CC[C@H](C)[C@@H]1NC(=O)[C@H](CCCCN)NC(=O)[C@@H](NC(=O)[C@H](CCCCN)NC(=O)[C@@H](NC(=O)[C@H](CC(N)=O)NC(=O)[C@@H](NC(=O)[C@@H](NC(=O)[C@@H](NC(=O)CN)C(C)C)[C@@H](C)CC)[C@@H](C)CC)C(C)C)CSSC[C@@H]2NC(=O)[C@H](CCCCN)NC(=O)CNC(=O)[C@H](Cc3ccccc3)NC(=O)[C@H](CCCNC(=N)N)NC(=O)[C@H](CCSC)NC(=O)CNC(=O)[C@H](C)NC(=O)[C@H](CCCCN)NC(=O)[C@H](CCCCN)NC(=O)[C@@H]3CSSC[C@@H](C(=O)N[C@H](C(=O)N4CCC[C@H]4C(=O)N[C@@H](CCCCN)C(=O)O)[C@@H](C)O)NC(=O)[C@H](Cc4c[nH]cn4)NC(=O)[C@H](CSSC[C@H](NC(=O)[C@H](CCC(N)=O)NC(=O)[C@H](CCCNC(=N)N)NC(=O)[C@H](CO)NC1=O)C(=O)N[C@@H](CC(C)C)C(=O)N[C@@H](CCCCN)C(=O)N1CCC[C@H]1C(=O)N3)NC(=O)[C@H](CCCCN)NC(=O)CNC(=O)[C@H](CC(N)=O)NC(=O)[C@H](CCSC)NC2=O [[K^16]-OsK1] (H-GVIINVKCKISRQCLKPCKKAGMRFGKCMNGKCHCTPK-OH; disulfide 8-28, 14-33, 18-35) | 3 |  | IC50 [2]: 0.067 ± 0.006 nM |
| CC[C@H](C)[C@@H]1NC(=O)[C@H](CCCCN)NC(=O)[C@@H](NC(=O)[C@H](CCCCN)NC(=O)[C@@H](NC(=O)[C@H](CC(N)=O)NC(=O)[C@@H](NC(=O)[C@@H](NC(=O)[C@@H](N)C(C)C)[C@@H](C)CC)[C@@H](C)CC)C(C)C)CSSC[C@@H]2NC(=O)[C@H](CCCCN)NC(=O)CNC(=O)[C@H](Cc3ccccc3)NC(=O)[C@H](CCCNC(=N)N)NC(=O)[C@H](CCSC)NC(=O)CNC(=O)[C@H](C)NC(=O)[C@H](CCCCN)NC(=O)[C@H](CCCCN)NC(=O)[C@@H]3CSSC[C@@H](C(=O)N[C@H](C(=O)N4CCC[C@H]4C(=O)N[C@@H](CCCCN)C(N)=O)[C@@H](C)O)NC(=O)[C@H](Cc4c[nH]cn4)NC(=O)[C@H](CSSC[C@H](NC(=O)[C@H](CCC(N)=O)NC(=O)[C@H](CCCNC(=N)N)NC(=O)[C@H](CO)NC1=O)C(=O)N[C@@H](CC(C)C)C(=O)N[C@@H](CCC(=O)O)C(=O)N1CCC[C@H]1C(=O)N3)NC(=O)[C@H](CCCCN)NC(=O)CNC(=O)[C@H](CC(N)=O)NC(=O)[C@H](CCSC)NC2=O [[Δ^1]-OsK1-NH2] (H-VIINVKCKISRQCLEPCKKAGMRFGKCMNGKCHCTPK-NH2; disulfide 7-27, 13-32, 17-34) | 7 |  |  |
| VSCTGSKDCYAPCRKQTGCPNA-KCINK-SCKCYGC [MTx] |  |  | Incid [3]: 100%; Max Clin Sc, Mean ± SD ([3]; group mean, scale 0 to 6): 2.2 ± 1.5; Duration (days), first episode of EAE ([3]; individual rats): chronic (3×) and 11 days; Onset (day), first episode of EAE ([3]; individual rats): d11 day; also recorded: d8 day; also recorded: d7 day; Max Clin Sc ([3]; individual rats, scale 0 to 6): 4 and 1 (2×) and 3 |
| Ac-GVIINVKCKISRQCLEPCKKAGMRFGKCMNGKCHCTPK-NH2 (ends and bridges not checked) [Ac-OsK1-NH2] |  | > 1000 | ID50 [4]: ~1300 nM |
| GVIINVKCKISRQCLEPCKKAGMRFGKCMNGKCHCTPK-NH2 (ends and bridges not checked) [OsK1-NH2] |  | > 1000 | ID50 [4]: 26 nM |
| GVIINVKCKISRQCLEPCKKAGMRFGKCMNGKCHCTPK [OsK1] |  | > 1000 |  |
